The record followed here is ChEMBL document CHEMBL3600310 (J Med Chem, 2015).

The term IC50 denotes the point on the concentration scale where inhibition reaches its midpoint.

Active and inactive are the calls of the source. The calls are words filed in the database; no cut-off is given here.

In one series the target is Tubulin. The experiment in a line: Inhibition of brain tubulin (unknown origin) polymerization measured up to 15 to 30 mins. Details: species or system Homo sapiens.
In series [1] the target is T1, DNA topoisomerase 1 (Homo sapiens) (UniProt P11387).
T1 sequence (whole entry): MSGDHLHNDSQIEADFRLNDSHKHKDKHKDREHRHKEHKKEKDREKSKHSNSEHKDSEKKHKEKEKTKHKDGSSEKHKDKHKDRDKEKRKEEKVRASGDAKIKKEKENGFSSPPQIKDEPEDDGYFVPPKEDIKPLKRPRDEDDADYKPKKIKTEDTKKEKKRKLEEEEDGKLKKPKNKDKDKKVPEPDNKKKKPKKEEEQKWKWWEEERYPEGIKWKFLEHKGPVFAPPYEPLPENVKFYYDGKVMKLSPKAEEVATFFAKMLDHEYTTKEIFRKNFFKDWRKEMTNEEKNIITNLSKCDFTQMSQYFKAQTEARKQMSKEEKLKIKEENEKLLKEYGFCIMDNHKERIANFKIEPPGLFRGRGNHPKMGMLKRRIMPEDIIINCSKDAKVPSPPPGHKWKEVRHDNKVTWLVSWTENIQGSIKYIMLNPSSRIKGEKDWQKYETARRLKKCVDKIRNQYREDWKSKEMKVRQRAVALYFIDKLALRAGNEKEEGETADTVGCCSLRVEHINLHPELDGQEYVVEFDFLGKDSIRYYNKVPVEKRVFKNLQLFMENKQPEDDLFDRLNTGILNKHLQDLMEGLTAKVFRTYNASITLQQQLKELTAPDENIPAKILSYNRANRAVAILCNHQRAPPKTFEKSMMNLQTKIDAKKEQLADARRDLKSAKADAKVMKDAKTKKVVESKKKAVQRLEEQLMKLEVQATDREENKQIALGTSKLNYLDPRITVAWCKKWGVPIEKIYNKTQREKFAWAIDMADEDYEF
The experiment in a line: Inhibition of Top1 (unknown origin)-mediated pBR322 DNA cleavage using ethidium bromide staining at 100 uM after 15 mins by electrophoresis analysis.

For series [2], the target named is DNA topoisomerase 2-alpha (Homo sapiens) (UniProt P11388). Kind of series: Inhibition of Top2alpha (unknown origin)-mediated pBR322 DNA cleavage using ethidium bromide staining at 100 uM after 30 mins by electrophoresis analysis.
Series [3] has as its target T1, DNA topoisomerase 1 (Homo sapiens). The experiment in a line: Inhibition of Top1 (unknown origin)-mediated pBR322 DNA cleavage using ethidium bromide staining at 200 uM after 15 mins by electrophoresis analysis.
For series [4] the target is unchanged. Kind of series: Inhibition of Top1 (unknown origin)-mediated pBR322 DNA cleavage using ethidium bromide staining at 50 uM after 15 mins by electrophoresis analysis.
Series [5] concerns A549. The experiment in a line: Cytotoxicity against human A549 cells after 72 hrs by MTT assay. It counts as functional, cell-based. Particulars: A549, 72 h.
The test system of a further series is MDA-MB-435. Kind of series: Cytotoxicity against human MDA-MB-435 cells after 72 hrs by MTT assay. It counts as functional, cell-based. Conditions: MDA-MB-435, 72 h. In general terms: Formazan colour is commonly taken as a measure of viable cells.
In series [6] the test system is HCT-116. The experiment in a line: Cytotoxicity against human HCT116 cells after 72 hrs by MTT assay. It counts as functional, cell-based. Particulars: HCT-116, 72 h.
In a further series the test system is K562. Kind of series: Cytotoxicity against human K562 cells after 72 hrs by MTT assay. It counts as functional, cell-based. Conditions: K562, 72 h.
Series [7] can be described thus: Cytotoxicity against human SKHEP1 cells after 72 hrs by MTT assay. Particulars: SK-HEP1, 72 h. It counts as functional, cell-based.
A further series concerns NCI-H446. Kind of series: Cytotoxicity against human NCI-H446 cells after 72 hrs by MTT assay. It counts as functional, cell-based. Particulars: NCI-H446, 72 h.
A short description of series [8]: Cytotoxicity against human MV-3 cells after 72 hrs by MTT assay. It counts as functional, cell-based. Particulars: MV-3, 72 h.
The nature of series [9]: Cytotoxicity against human Bel7404 cells after 72 hrs by MTT assay. In kind it is functional, cell-based. Particulars: BEL-7404, 72 h.
The test system of the next series is PC-3. Kind of series: cells. Conditions: Homo sapiens, PC-3, 72 h.
Series [10] in a line: Cytotoxicity against human SW579 cells after 72 hrs by MTT assay. It counts as functional, cell-based. Conditions: SW579, 72 h.
For series [11], the system named is HCT-116. The experiment in a line: Antitumor activity against human HCT116 cells xenografted in BALB/C mouse assessed as tumor growth inhibition at 2 mg/kg, ip for 5 days. It counts as functional, organism-based. A general note: In xenograft studies the graft and the host belong to different species.
Series [12] deals with Mus musculus. Kind of series: Toxicity in human A549 cells xenografted BALB/C mouse assessed as mortality at 2 mg/kg, ip for 5 days. In kind it is organism-based. Particulars: in vivo, 120 h.
Series [13] relates to Mus musculus. Kind of series: Toxicity in human A549 cells xenografted BALB/C mouse assessed as change in body weight at 2 mg/kg, ip for 5 days. In kind it is organism-based. Conditions: in vivo, 120 h.
Series [14] concerns A549. The experiment in a line: Antitumor activity against human A549 cells xenografted in BALB/C mouse assessed as tumor growth inhibition at 2 mg/kg, ip for 5 days. In kind it is functional, organism-based.

Chain of DNA topoisomerase 2-alpha (Homo sapiens) (P11388 whole entry): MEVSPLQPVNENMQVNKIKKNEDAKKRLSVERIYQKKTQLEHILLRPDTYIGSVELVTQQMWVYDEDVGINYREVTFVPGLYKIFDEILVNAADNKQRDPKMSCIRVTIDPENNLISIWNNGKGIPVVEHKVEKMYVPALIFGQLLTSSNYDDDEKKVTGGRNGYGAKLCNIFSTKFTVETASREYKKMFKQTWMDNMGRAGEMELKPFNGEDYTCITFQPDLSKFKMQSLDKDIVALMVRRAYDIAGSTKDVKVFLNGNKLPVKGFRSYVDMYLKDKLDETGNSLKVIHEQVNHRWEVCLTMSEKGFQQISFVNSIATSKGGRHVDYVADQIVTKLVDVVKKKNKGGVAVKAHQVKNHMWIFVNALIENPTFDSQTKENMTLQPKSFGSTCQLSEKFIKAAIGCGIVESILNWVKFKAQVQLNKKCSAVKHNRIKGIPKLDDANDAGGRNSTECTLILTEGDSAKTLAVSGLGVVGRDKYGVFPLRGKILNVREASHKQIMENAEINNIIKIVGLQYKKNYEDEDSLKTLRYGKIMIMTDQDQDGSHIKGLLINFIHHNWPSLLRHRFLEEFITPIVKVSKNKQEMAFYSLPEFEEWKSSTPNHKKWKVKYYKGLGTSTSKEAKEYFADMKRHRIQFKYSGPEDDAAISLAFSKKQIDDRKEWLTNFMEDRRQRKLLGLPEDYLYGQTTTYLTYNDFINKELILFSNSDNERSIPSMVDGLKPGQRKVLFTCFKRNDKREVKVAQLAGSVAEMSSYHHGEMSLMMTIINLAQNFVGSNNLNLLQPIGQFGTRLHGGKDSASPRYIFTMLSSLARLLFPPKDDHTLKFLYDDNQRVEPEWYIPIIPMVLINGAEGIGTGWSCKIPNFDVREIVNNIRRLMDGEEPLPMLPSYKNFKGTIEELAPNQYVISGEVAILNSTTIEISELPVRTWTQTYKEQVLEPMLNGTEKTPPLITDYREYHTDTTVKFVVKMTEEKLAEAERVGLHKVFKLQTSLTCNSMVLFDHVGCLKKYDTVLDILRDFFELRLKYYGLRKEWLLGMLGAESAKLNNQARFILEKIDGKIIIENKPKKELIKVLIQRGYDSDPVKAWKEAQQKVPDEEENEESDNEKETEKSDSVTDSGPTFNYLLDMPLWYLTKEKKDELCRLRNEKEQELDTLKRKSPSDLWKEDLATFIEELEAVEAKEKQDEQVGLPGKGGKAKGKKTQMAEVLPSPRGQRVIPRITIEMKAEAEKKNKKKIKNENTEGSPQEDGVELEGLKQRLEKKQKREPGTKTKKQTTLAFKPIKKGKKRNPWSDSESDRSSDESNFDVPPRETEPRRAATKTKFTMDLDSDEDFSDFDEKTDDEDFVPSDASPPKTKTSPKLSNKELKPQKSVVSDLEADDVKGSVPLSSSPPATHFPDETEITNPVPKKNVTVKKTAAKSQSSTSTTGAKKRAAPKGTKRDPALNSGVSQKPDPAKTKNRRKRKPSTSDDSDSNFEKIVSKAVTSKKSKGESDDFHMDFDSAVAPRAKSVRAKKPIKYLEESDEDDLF
Description for PC-3: Cytotoxicity against human PC3 cells after 72 hrs by MTT assay

Turning to `CCC1=C[C@@H]2CN(C1)Cc1c([nH]c3ccccc13)[C@@](C(=O)OC)(c1cc3c(cc1OC)N(C)[C@H]1[C@@](O)(C(=O)OC)[C@H](OC(C)=O)[C@]4(CC)C=CCN5CC[C@]31[C@@H]54)C2` [VINORELBINE], half-maximal inhibition on Tubulin (IC50) required 2000 nM. That is a single-digit micromolar value.

`O=C1c2ccccc2SC2c3[nH]c4ccccc4c3CCN12` (centres undefined): the inhibition entry in series [1], in series [3] and in [4] was “Active” throughout. For the same compound, in [2], the inhibition result was “inactive”.

As for `O=C1c2ccccc2S(=O)(=O)C2c3[nH]c4ccc(O)cc4c3CCN12` (centres undefined), the results for the half-inhibitory concentration (IC50) in the series on A549 [5], in the series with MDA-MB-435 and in the series with HCT-116 [6] were more than 200000 nM, more than 200000 nM and 46000 nM, respectively. In [2], the inhibition entry was “inactive”.

As for `COc1ccc2c(c1)C(=O)N1CCc3c([nH]c4ccc(O)cc34)C1S2` (centres undefined), the IC50 is less than 3 nM with K562; 2200 nM in series [7]; more than 200000 nM in the series with NCI-H446; 300 nM in the series with A549 [5]; 1200 nM in [8]; less than 3 nM in series [9]. The IC50 in the series on PC-3 was 430 nM; in series [10], 7300 nM; in the series with MDA-MB-435, less than 3 nM; in the series with HCT-116 [6], less than 3 nM. The inhibition result in series [1], in series [3] and in series [4] was “Active” throughout. Besides, in [2], the inhibition entry is “inactive”.

`COc1ccc2[nH]c3c(c2c1)CCN1C(=O)c2cc(Br)ccc2SC31` (centres undefined): the inhibition result in series [1] and in series [4] was “Active” throughout. Further, the IC50 in the series on A549 [5] came out at 8200 nM; in the series on MDA-MB-435, 84700 nM; in the series with HCT-116 [6] it was 2700 nM.

For `COc1ccc2[nH]c3c(c2c1)CCN1C(=O)c2cc(Cl)ccc2SC31` (centres undefined), the inhibition entry in [1] and in series [4] was “Active” throughout. The results for the IC50 with A549 [5], in the series with MDA-MB-435 and with HCT-116 [6] were 2300 nM, 44100 nM and 2700 nM, respectively.

In the case of `O=C1c2cc(O)ccc2OC2c3[nH]c4ccc(O)cc4c3CCN12` (centres undefined), the IC50 with K562 was less than 3 nM; in series [7] it was 1100 nM; in the series with NCI-H446, more than 200000 nM; in the series with A549 [5], 3800 nM; in series [8], 1200 nM; in [9], 60 nM. For the same compound, the IC50 was 840 nM with PC-3, 5150 nM in series [10], 800 nM with MDA-MB-435 and 1200 nM in the series on HCT-116 [6]. The inhibition result in series [2] and in [3] was “Active” throughout. Besides, the “growth inhibition (GI)” value with HCT-116 [11] is “Active”.

For `Nc1ccc2c(c1)C(=O)N1CCc3c([nH]c4ccc(O)cc34)C1O2` (centres undefined), the IC50 in the series with A549 [5] was 29100 nM; in the series on MDA-MB-435, 600 nM; with HCT-116 [6] it was 500 nM. In series [2], the inhibition result is “inactive”. Further, in [3], the inhibition entry is “Active”.

Turning to `Cc1ccc2c(c1)OC1c3[nH]c4ccc(O)cc4c3CCN1C2=O` (centres undefined), the Activity result in the series with Mus musculus [12] and with Mus musculus [13] was “Non-toxic” each time. Besides, the figures for the IC50 in the series with A549 [5], in the series on MDA-MB-435 and with HCT-116 [6] were 6500 nM, less than 3 nM and less than 3 nM, respectively. Besides, the “growth inhibition (GI)” value with A549 [14] was “Active”.

Regarding `COc1ccc2[nH]c3c(c2c1)CCN1C(=O)c2cc(F)ccc2SC31` (centres undefined), the inhibition result in series [1] and in series [4] was “Active” each time. Also, the figures for the half-maximal inhibitory concentration (IC50) in the series on A549 [5], with MDA-MB-435 and in the series on HCT-116 [6] were 1200 nM, 3900 nM and 6500 nM, respectively.

For `O=C1c2cc(F)ccc2SC2c3[nH]c4ccccc4c3CCN12` (centres undefined), the inhibition entry in [1] and in [4] was “Active” each time. Moreover, the IC50 in the series on A549 [5], in the series on MDA-MB-435 and with HCT-116 [6] was more than 200000 nM each time.

For the compound `O=C1c2cccnc2SC2c3[nH]c4ccccc4c3CCN12` (centres undefined), the inhibition entry in [1] and in [4] was “Active” each time. In addition, the IC50 in the series on A549 [5], with MDA-MB-435 and in the series with HCT-116 [6] was more than 200000 nM each time.

As for `O=C1c2ccccc2OC2c3[nH]c4ccc(O)cc4c3CCN12` (centres undefined), the half-maximal inhibitory concentration (IC50) with A549 [5] stood at 4000 nM; in the series with MDA-MB-435 it was 1400 nM; with HCT-116 [6], 2300 nM. The inhibition entry in [2] is “inactive”. Further, the inhibition result in [3] was “Active”.

For the compound `O=C1c2cc(Cl)ccc2SC2c3[nH]c4ccccc4c3CCN12` (centres undefined), the inhibition result in series [1] and in [4] was “Active” each time. The values for the half-inhibitory concentration (IC50) with A549 [5], in the series on MDA-MB-435 and in the series on HCT-116 [6] were 2100 nM, 38800 nM and 29100 nM, respectively.

Consider `O=C1c2cc(F)ccc2SC2c3[nH]c4ccc(O)cc4c3CCN12` (centres undefined), for which the inhibition result in series [1] and in series [4] was “Active” in each case. Further, the figures for the IC50 in the series with A549 [5], in the series on MDA-MB-435 and with HCT-116 [6] were 1200 nM, less than 3 nM and less than 3 nM, respectively.

For `COc1ccc2[nH]c3c(c2c1)CCN1C(=O)c2ccccc2S(=O)(=O)C31` (centres undefined), the inhibition entry in series [1], in series [2], in [3] and in [4] was “Active” each time. For the same compound, the IC50 in the series with A549 [5], with MDA-MB-435 and with HCT-116 [6] was more than 200000 nM in each case.

With `CC[C@@]1(O)C(=O)OCc2c1cc1n(c2=O)Cc2cc3ccccc3nc2-1` [CAMPTOTHECIN], the IC50 with K562 was less than 3 nM; in series [7], 960 nM; in the series on NCI-H446, more than 200000 nM; with A549 [5] it was 100 nM; in series [8], less than 3 nM; in [9], 140 nM. In addition, the IC50 worked out at 2500 nM in the series on PC-3, 710 nM in series [10], 1000 nM with MDA-MB-435 and 90 nM with HCT-116 [6].

Consider `COc1ccc2c(c1)C(=O)N1CCc3c([nH]c4ccc(OC)cc34)C1S2` (centres undefined), for which the inhibition result in [1] and in [4] was “Active” each time. In addition, the IC50 in the series on A549 [5] was 11300 nM; with MDA-MB-435, 122000 nM; with HCT-116 [6], 20000 nM.

As to `O=C1c2ccccc2S(=O)(=O)C2c3[nH]c4ccccc4c3CCN12` (centres undefined), the inhibition entry in [1] and in [4] was “Active” each time. Moreover, the IC50 in the series on A549 [5], in the series with MDA-MB-435 and with HCT-116 [6] was more than 200000 nM throughout.

`O=C1c2cc(O)ccc2SC2c3[nH]c4ccc(O)cc4c3CCN12` (centres undefined): the IC50 with K562 was less than 3 nM; in [7] it was 490 nM; in the series with NCI-H446 it was 16600 nM; with A549 [5], 700 nM; in [8] it was 140 nM; in series [9] it was less than 3 nM. The IC50 with PC-3 was less than 3 nM; in [10], 3500 nM; in the series on MDA-MB-435 it was less than 3 nM; in the series on HCT-116 [6], less than 3 nM. Moreover, the inhibition entry in [1], in series [2], in series [3] and in series [4] was “Active” throughout. The “growth inhibition (GI)” value in the series with HCT-116 [11] was “Active”.
